Test results as given in ChEMBL document CHEMBL4420076, “Amylin and calcitonin receptor agonist” (2017).
Numbered stars: 1 amine (or outer) side, 2 acyl side, 3 side chain; on linkers, the order of the positions; unused ones are H or OH. Peptide text beside a SMILES is read from it. * marks the point of attachment. C20 diacid = O=C(O)CCCCCCCCCCCCCCCCCCC(=O)*; C18 diacid = O=C(O)CCCCCCCCCCCCCCCCC(=O)*; γGlu = O=C(O)[C@H](CCC(=O)[*:2])N[*:1]

What was measured:
[1] = Solubility in 100 mM glycylglycine buffer at pH 3.0 incubated for 18 hrs by UPLC analysis; format: physicochemical
[2] = Solubility in 100 mM bistrispropane buffer at pH 6.5 incubated for 18 hrs by UPLC analysis; format: physicochemical
[3] = target: T1, Amylin receptor AMY3; CALCR/RAMP3 (Homo sapiens, UniProt O60896+P30988); assay: Displacement of [125I]-labeled rat amylin from human amylin receptor expressed in BHK tkts13 whole cells co-expressing RAMP3 incubated for 60 mins by scintillation proximity assay; format: cell-based
T1 sequence (P30988 whole entry): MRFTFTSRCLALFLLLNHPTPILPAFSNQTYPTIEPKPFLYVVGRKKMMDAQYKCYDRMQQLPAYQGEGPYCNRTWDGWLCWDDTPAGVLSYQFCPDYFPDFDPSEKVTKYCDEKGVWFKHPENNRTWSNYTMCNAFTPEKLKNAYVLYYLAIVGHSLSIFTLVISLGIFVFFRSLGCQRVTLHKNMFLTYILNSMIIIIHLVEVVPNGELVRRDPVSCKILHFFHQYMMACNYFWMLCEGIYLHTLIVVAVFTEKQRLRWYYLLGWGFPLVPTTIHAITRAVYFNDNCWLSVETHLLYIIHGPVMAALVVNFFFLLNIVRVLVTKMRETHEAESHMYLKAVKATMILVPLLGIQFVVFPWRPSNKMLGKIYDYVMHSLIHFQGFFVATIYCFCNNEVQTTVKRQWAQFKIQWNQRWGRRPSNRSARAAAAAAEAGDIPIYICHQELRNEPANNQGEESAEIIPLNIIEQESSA
T1 sequence (O60896 whole entry): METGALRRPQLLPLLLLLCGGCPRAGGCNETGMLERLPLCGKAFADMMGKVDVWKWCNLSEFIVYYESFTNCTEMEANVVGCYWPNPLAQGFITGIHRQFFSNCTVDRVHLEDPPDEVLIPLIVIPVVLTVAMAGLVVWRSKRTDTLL

Calcitonin receptor [4] = target: T2, Calcitonin receptor (Homo sapiens, UniProt P30988); assay: Agonist activity at human calcitonin receptor expressed in BHK570 cells assessed as increase in intracellular cAMP concentration incubated for 3 hrs in absence of albumin by CRE luciferase reporter gene assay; format: functional, cell-based
T2 sequence (P30988 whole entry): T1 sequence (P30988 whole entry)

[5] = Solubility in 100 mM bistrispropane buffer at pH 7.5 incubated for 18 hrs by UPLC analysis; format: physicochemical
[6] = Solubility in 100 mM bistrispropane buffer at pH 8.0 incubated for 18 hrs by UPLC analysis; format: physicochemical
[7] = Solubility in 100 mM bistrispropane buffer at pH 7.0 incubated for 18 hrs by UPLC analysis; format: physicochemical
[8] = Solubility in 100 mM glycylglycine buffer at pH 5.0 incubated for 18 hrs by UPLC analysis; format: physicochemical
[9] = Solubility in 100 mM glycylglycine buffer at pH 4.0 incubated for 18 hrs by UPLC analysis; format: physicochemical
[10] = Solubility in 100 mM bistrispropane buffer at pH 6.0 incubated for 18 hrs by UPLC analysis; format: physicochemical
[11] = target: T1, Amylin receptor AMY3; CALCR/RAMP3; assay: Agonist activity at human amylin receptor expressed in BHK570 cells co-expressing RAMP3 assessed as increase in intracellular cAMP concentration incubated for 3 hrs in absence of albumin by CRE luciferase reporter gene assay; format: functional, cell-based
Calcitonin receptor [12] = target: T2, Calcitonin receptor; assay: Agonist activity at human calcitonin receptor expressed in BHK570 cells assessed as increase in intracellular cAMP concentration incubated for 3 hrs in presence of 10% FBS by CRE luciferase reporter gene assay; format: functional, cell-based

| SMILES | solubility at 18 h [1] [µM] | solubility at 18 h [2] [µM] | IC50 [3] [pM] | EC50 (Calcitonin receptor [4]) [pM] | solubility at 18 h [5] [µM] | solubility at 18 h [6] [µM] | solubility at 18 h [7] [µM] | solubility at 18 h [8] [µM] | solubility at 18 h [9] [µM] | solubility at 18 h [10] [µM] | EC50 [11] [pM] | EC50 (Calcitonin receptor [12]) [pM] |
| --- | --- | --- | --- | --- | --- | --- | --- | --- | --- | --- | --- | --- |
| CC(C)C[C@H](NC(=O)[C@H](CCC(=O)O)NC(=O)[C@H](Cc1cnc[nH]1)NC(=O)[C@H](CC(C)C)NC(=O)[C@H](CCC(=O)O)NC(=O)[C@H](C)NC(=O)[C@H](CO)NC(=O)[C@H](CC(C)C)NC(=O)[C@H](CCCNC(=N)N)NC(=O)CNC(=O)[C@H](CC(C)C)NC(=O)[C@@H](NC(=O)[C@H](C)NC(=O)[C@@H](NC(=O)[C@H](CO)NC(=O)[C@H](CC(C)C)NC(=O)[C@@H]1CCCN1C(=O)[C@H](CO)NC(=O)[C@H](C)NC(=O)[C@H](CCC(=O)O)NC(=O)CCCCCCCCCCCCCCCCC(=O)O)[C@@H](C)O)C(C)C)C(=O)N[C@@H](C)C(=O)N[C@H](C(=O)N[C@@H](CC(C)C)C(=O)N1CCC[C@H]1C(=O)N[C@@H](CCCNC(=N)N)C(=O)N[C@H](C(=O)N[C@@H](CCC(=O)O)C(=O)N[C@H](C(=O)NCC(=O)N1CCC[C@H]1C(=O)N[C@@H](CCC(=O)O)C(=O)N[C@@H](CO)C(=O)N1CCC[C@H]1C(N)=O)[C@@H](C)O)[C@@H](C)O)[C@@H](C)O ({C18 diacid}-EASPLSTAVLGRLSAELHELATLPRTETGPESP-NH2) | ≥ 200 | ≥ 200 | 323 | 7 | ≥ 200 | ≥ 200 | ≥ 200 | ≥ 200 | ≥ 200 | ≥ 200 | 14 | – |
| CC(C)C[C@H](NC(=O)[C@H](C)NC(=O)[C@H](C)NC(=O)[C@@H](NC(=O)[C@H](CO)NC(=O)[C@H](CC(C)C)NC(=O)[C@H](CCC(=O)O)NC(=O)[C@H](CO)NC(=O)[C@H](C)NC(=O)CC[C@H](NC(=O)CCCCCCCCCCCCCCCCCCC(=O)O)C(=O)O)[C@@H](C)O)C(=O)NCC(=O)N[C@@H](Cc1cnc[nH]1)C(=O)N[C@@H](CC(C)C)C(=O)N[C@@H](CO)C(=O)N[C@@H](C)C(=O)N[C@@H](CCC(=O)O)C(=O)N[C@@H](CC(C)C)C(=O)N[C@@H](Cc1cnc[nH]1)C(=O)N[C@@H](CCC(=O)O)C(=O)N[C@@H](CC(C)C)C(=O)N[C@@H](C)C(=O)N[C@H](C(=O)N[C@@H](CC(C)C)C(=O)N1CCC[C@H]1C(=O)N[C@@H](Cc1cnc[nH]1)C(=O)N[C@H](C(=O)N[C@@H](CCC(=O)O)C(=O)N[C@H](C(=O)NCC(=O)N[C@H](C(=O)NCC(=O)N[C@H](C(=O)N1CCC[C@H]1C(N)=O)[C@@H](C)O)[C@@H](C)O)[C@@H](C)O)[C@@H](C)O)[C@@H](C)O ({C20 diacid-γGlu}-ASELSTAALGHLSAELHELATLPHTETGTGTP-NH2) | ≥ 200 | ≥ 200 | 1510 | 24 | ≥ 200 | ≥ 200 | ≥ 200 | ≥ 200 | ≥ 200 | ≥ 200 | 64 | – |
| CC(C)C[C@H](NC(=O)[C@H](C)NC(=O)[C@H](C)NC(=O)[C@@H](NC(=O)[C@H](CO)NC(=O)[C@H](CC(C)C)NC(=O)[C@H](CCC(=O)O)NC(=O)[C@H](CO)NC(=O)[C@H](C)NC(=O)CC[C@H](NC(=O)CCCCCCCCCCCCCCCCCCC(=O)O)C(=O)O)[C@@H](C)O)C(=O)NCC(=O)N[C@@H](CCCNC(=N)N)C(=O)N[C@@H](CC(C)C)C(=O)N[C@@H](CO)C(=O)N[C@@H](C)C(=O)N[C@@H](CCC(=O)O)C(=O)N[C@@H](CC(C)C)C(=O)N[C@@H](Cc1cnc[nH]1)C(=O)N[C@@H](CCC(=O)O)C(=O)N[C@@H](CC(C)C)C(=O)N[C@@H](C)C(=O)N[C@H](C(=O)N[C@@H](Cc1ccc(O)cc1)C(=O)N1CCC[C@H]1C(=O)N[C@@H](CCCNC(=N)N)C(=O)N[C@H](C(=O)N[C@@H](CCC(=O)O)C(=O)N[C@H](C(=O)NCC(=O)N[C@@H](CO)C(=O)NCC(=O)N[C@@H](CO)C(=O)N1CCC[C@H]1C(=O)NCC(=O)O)[C@@H](C)O)[C@@H](C)O)[C@@H](C)O ({C20 diacid-γGlu}-ASELSTAALGRLSAELHELATYPRTETGSGSPG-OH) | – | – | 7260 | 64 | – | – | – | – | – | – | 187 | 50 |
| CC(C)C[C@H](NC(=O)CNC(=O)[C@H](CO)NC(=O)[C@H](C)NC(=O)CC[C@H](NC(=O)CCCCCCCCCCCCCCCCCCC(=O)O)C(=O)O)C(=O)N[C@@H](CO)C(=O)N[C@H](C(=O)N[C@@H](C)C(=O)N[C@@H](C)C(=O)N[C@@H](CC(C)C)C(=O)NCC(=O)N[C@@H](CCCNC(=N)N)C(=O)N[C@@H](CC(C)C)C(=O)N[C@@H](CO)C(=O)N[C@H](C(=O)N[C@@H](CCC(=O)O)C(=O)N[C@@H](CC(C)C)C(=O)N[C@@H](Cc1cnc[nH]1)C(=O)N[C@@H](CCC(=O)O)C(=O)N[C@@H](CC(C)C)C(=O)N[C@@H](CCC(=O)O)C(=O)N[C@H](C(=O)N[C@@H](Cc1ccc(O)cc1)C(=O)N1CCC[C@H]1C(=O)N[C@@H](CCCNC(=N)N)C(=O)N[C@H](C(=O)N[C@@H](CCC(=O)O)C(=O)N[C@H](C(=O)NCC(=O)N[C@@H](CO)C(=O)NCC(=O)N[C@H](C(=O)N[C@@H](Cc1ccc(O)cc1)C(N)=O)[C@@H](C)O)[C@@H](C)O)[C@@H](C)O)[C@@H](C)O)[C@@H](C)O)[C@@H](C)O ({C20 diacid-γGlu}-ASGLSTAALGRLSTELHELETYPRTETGSGTY-NH2) | ≥ 200 | ≥ 200 | 431 | 18 | ≥ 200 | ≥ 200 | ≥ 200 | – | – | ≥ 200 | 54 | 67 |

Further molecules by falling IC50 [3], results first:

| solubility at 18 h [1] [µM] | solubility at 18 h [2] [µM] | IC50 [3] [pM] | EC50 (Calcitonin receptor [4]) [pM] | solubility at 18 h [5] [µM] | solubility at 18 h [6] [µM] | solubility at 18 h [7] [µM] | solubility at 18 h [8] [µM] | solubility at 18 h [9] [µM] | solubility at 18 h [10] [µM] | EC50 [11] [pM] | EC50 (Calcitonin receptor [12]) [pM] | SMILES |
| --- | --- | --- | --- | --- | --- | --- | --- | --- | --- | --- | --- | --- |
| – | – | 21000 | – | – | – | – | – | – | – | 239 | 53 | CC(C)C[C@H](NC(=O)[C@H](C)NC(=O)[C@H](C)NC(=O)[C@@H](NC(=O)[C@H](CO)NC(=O)[C@H](CC(C)C)NC(=O)[C@H](CCC(=O)O)NC(=O)[C@H](CO)NC(=O)[C@H](C)NC(=O)CC[C@H](NC(=O)CCCCCCCCCCCCCCCCCCC(=O)O)C(=O)O)[C@@H](C)O)C(=O)NCC(=O)N[C@@H](CCCNC(=N)N)C(=O)N[C@@H](CC(C)C)C(=O)N[C@@H](CO)C(=O)N[C@@H](C)C(=O)N[C@@H](CCC(=O)O)C(=O)N[C@@H](CC(C)C)C(=O)N[C@@H](Cc1cnc[nH]1)C(=O)N[C@@H](CCC(=O)O)C(=O)N[C@@H](CC(C)C)C(=O)N[C@@H](C)C(=O)N[C@H](C(=O)N[C@@H](Cc1ccc(O)cc1)C(=O)N1CCC[C@H]1C(=O)N[C@@H](CCCNC(=N)N)C(=O)N[C@H](C(=O)N[C@@H](CCC(=O)O)C(=O)N[C@H](C(=O)NCC(=O)N[C@@H](CO)C(=O)NCC(=O)N[C@@H](CO)C(=O)N1CCC[C@H]1C(=O)N[C@@H](CCCCN)C(=O)O)[C@@H](C)O)[C@@H](C)O)[C@@H](C)O ({C20 diacid-γGlu}-ASELSTAALGRLSAELHELATYPRTETGSGSPK-OH) |
| ≥ 200 | ≥ 200 | 275 | 7 | ≥ 200 | ≥ 200 | ≥ 200 | ≥ 200 | ≥ 200 | ≥ 200 | 9 | – | CC(C)C[C@H](NC(=O)[C@H](C)NC(=O)[C@H](CC(C)C)NC(=O)[C@@H](NC(=O)[C@H](CO)NC(=O)[C@H](CC(C)C)NC(=O)[C@H](CCC(=O)O)NC(=O)[C@H](CO)NC(=O)[C@H](C)NC(=O)[C@H](CCC(=O)O)NC(=O)CCCCCCCCCCCCCCCCC(=O)O)[C@@H](C)O)C(=O)NCC(=O)N[C@@H](CCCNC(=N)N)C(=O)N[C@@H](CC(C)C)C(=O)N[C@@H](CO)C(=O)N[C@@H](C)C(=O)N[C@@H](CCC(=O)O)C(=O)N[C@@H](CC(C)C)C(=O)N[C@@H](Cc1cnc[nH]1)C(=O)N[C@@H](CCC(=O)O)C(=O)N[C@@H](CC(C)C)C(=O)N[C@@H](C)C(=O)N[C@H](C(=O)N[C@@H](CC(C)C)C(=O)N1CCC[C@H]1C(=O)N[C@@H](CCCNC(=N)N)C(=O)N[C@H](C(=O)N[C@@H](CCC(=O)O)C(=O)N[C@H](C(=O)NCC(=O)N1CCC[C@H]1C(=O)N[C@@H](CCC(=O)O)C(=O)N[C@@H](CO)C(=O)N1CCC[C@H]1C(N)=O)[C@@H](C)O)[C@@H](C)O)[C@@H](C)O ({C18 diacid}-EASELSTLALGRLSAELHELATLPRTETGPESP-NH2) |
